pIC50, pKi: −log10 of the molar value.
Target: hQC (Homo sapiens (Human), UniProt Q16769)
Assay: QC inhibitor assay (hQC inhibition, IC50 and Ki determination)
Type: biochemical
Conditions: for pKi: competitive inhibition fit
Procedure: All measurements were performed with a BioAssay Reader HTS-7000Plus for microplates (Perkin Elmer) at 30° C. QC activity was evaluated fluorometrically using H-Gln-βNA. The samples consisted of 0.2 mM fluorogenic substrate, 0.25 U pyroglutamyl aminopeptidase (Unizyme, Hørsholm, Denmark) in 0.2 M Tris/HCl, pH 8.0 containing 20 mM EDTA and an appropriately diluted aliquot of QC in a final volume of 250 μl. Excitation/emission wavelengths were 320/410 nm. The assay reactions were initiated by addition of glutaminyl cyclase. QC activity was determined from a standard curve of β-naphthylamine under assay conditions. One unit is defined as the amount of QC catalyzing the formation of 1 μmol pGlu-βNA from H-Gln-βNA per minute under the described conditions.
In a second fluorometric assay, QC was activity determined using H-Gln-AMC as substrate. Reactions were carried out at 30° C. utilizing the NOVOStar reader for microplates (BMG labtechnologies). The samples consisted of varying concentrations of the fluorogenic substrate, 0.1 U pyroglutamyl aminopeptidase (Qiagen) in 0.05 M Tris/HCl, pH 8.0 containing 5 mM EDTA and an appropriately diluted aliquot of QC in a final volume of 250 μl. Excitation/emission wavelengths were 380/460 nm. The assay reactions were initiated by addition of glutaminyl cyclase. QC activity was determined from a standard curve of 7-amino-4-methylcoumarin under assay conditions. The kinetic data were evaluated using GraFit software.
This novel assay was used to determine the kinetic parameters for most of the QC substrates. […] Samples consisted of the respective QC substrate, 0.3 mM NADH, 14 mM α-Ketoglutaric acid and 30 U/ml glutamate dehydrogenase in a final volume of 250 μl. Reactions were started by addition of QC and perused by monitoring of the decrease in absorbance at 340 nm for 8-15 min.
The initial velocities were evaluated and the enzymatic activity was determined from a standard curve of ammonia under assay conditions. All samples were measured at 30° C., using either the […]luor Plus or the Sunrise (both from TECAN) reader for microplates. Kinetic data was evaluated using GraFit software.
For inhibitor testing, the sample composition was the same as described above, except of the putative inhibitory compound added. For a rapid test of QC-inhibition, samples contained 4 mM of the respective inhibitor and a substrate concentration at 1 KM. For detailed investigations of the inhibition and determination of Ki-values, influence of the inhibitor on the auxiliary enzymes was investigated first. […] The inhibitory constant was evaluated by fitting the set of progress curves to the general equation for competitive inhibition using GraFit software.

Sequence of hQC (Q16769 29-361): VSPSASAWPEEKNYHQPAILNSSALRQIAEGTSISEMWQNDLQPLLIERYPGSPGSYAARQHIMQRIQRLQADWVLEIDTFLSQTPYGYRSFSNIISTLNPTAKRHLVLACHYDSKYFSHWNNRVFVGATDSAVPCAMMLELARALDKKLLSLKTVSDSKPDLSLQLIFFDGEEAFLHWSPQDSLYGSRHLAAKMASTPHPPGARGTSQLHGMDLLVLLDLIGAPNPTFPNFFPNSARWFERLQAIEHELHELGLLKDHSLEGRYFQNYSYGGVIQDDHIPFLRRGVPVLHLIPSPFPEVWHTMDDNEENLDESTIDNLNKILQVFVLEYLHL

pIC50 | pKi | Compound
6.19 | 6.96 | COc1ccc(Cn2cnnc2-c2ccc3[nH]cnc3c2)cc1 [Example 8, 5-(4-(4-Methoxybenzyl)-4H-1,2,4-triazol-3-yl)-1H-benzo[d]imidazole]
6.12 | 6.70 | Clc1ccccc1Cn1cnnc1-c1ccc2[nH]cnc2c1 [Example 9, 5-(4-(2-Chlorobenzyl)-4H-1,2,4-triazol-3-yl)-1H-benzo[d]imidazole]
6.32 | 7.10 | c1ccc(Oc2ccc(Cn3cnnc3-c3ccc4[nH]cnc4c3)cc2)cc1 [Example 10, 5-(4-(4-phenoxybenzyl)-4H-1,2,4-triazol-3-yl)-1H-benzo[d]imidazole]
6.28 | 6.92 | Clc1cccc(Cn2cnnc2-c2ccc3[nH]cnc3c2)c1Cl [Example 22, 5-(4-(2,3-Dichlorobenzyl)-4H-1,2,4-triazol-3-yl)-1H-benzo[d]imidazole]
6.07 | 6.64 | COc1ccc(Cn2cnnc2-c2ccc3[nH]cnc3c2)cc1Cl [Example 24, 5-(4-(3-Chloro-4-methoxybenzyl)-4H-1,2,4-triazol-3-yl)-1H-benzo[d]imidazole]
6.10 | 6.89 | COc1ccc(CCc2nnc(-c3ccc4[nH]cnc4c3)o2)cc1Cl [Example 39, 5-(5-(3-Chloro-4-methoxyphenethyl)-1,3,4-oxadiazol-2-yl)-1H-benzo[d]imidazole]
6.12 | 7.10 | CSc1ccc(CCc2nnc(-c3ccc4[nH]cnc4c3)s2)cc1 [Example 50, 5-(5-(4-(Methylthio)phenethyl)-1,3,4-thiadiazol-2-yl)-1H-benzo[d]imidazole]
6.17 | 7.30 | COc1ccc(CCc2nnc(-c3ccc4[nH]cnc4c3)s2)cc1Cl [Example 52, 5-(5-(3-Chloro-4-methoxyphenethyl)-1,3,4-thiadiazol-2-yl)-1H-benzo[d]imidazole]
6.31 | 7.10 | COc1cc(CCc2nnc(-c3ccc4[nH]cnc4c3)s2)cc(OC)c1OC [Example 55, 5-(5-(3,4,5-Trimethoxyphenethyl)-1,3,4-thiadiazol-2-yl)-1H-benzo[d]imidazole]
6.14 | 6.85 | Fc1ccc(CCc2nnc(-c3ccc4[nH]cnc4c3)s2)cc1F [Example 58, 5-(5-(3,4-Difluorophenethyl)-1,3,4-thiadiazol-2-yl)-1H-benzo[d]imidazole]
6.25 | 6.92 | Fc1cccc(CCc2nnc(-c3ccc4[nH]cnc4c3)s2)c1 [Example 59, 5-(5-(3-fluorophenethyl)-1,3,4-thiadiazol-2-yl)-1H-benzo[d]imidazole]
6.35 | 7.40 | COc1cccc(CCc2nnc(-c3ccc4[nH]cnc4c3)s2)c1 [Example 60, 5-(5-(3-Methoxyphenethyl)-1,3,4-thiadiazol-2-yl)-1H-benzo[d]imidazole]
6.12 | 6.77 | COc1ccccc1CCc1nnc(-c2ccc3[nH]cnc3c2)s1 [Example 61, 5-(5-(2-Methoxyphenethyl)-1,3,4-thiadiazol-2-yl)-1H-benzo[d]imidazole]
6.32 | 7.10 | COc1ccc(OC)c(CCc2nnc(-c3ccc4[nH]cnc4c3)s2)c1 [Example 62, 5-(5-(2,5-Dimethoxyphenethyl)-1,3,4-thiadiazol-2-yl)-1H-benzo[d]imidazole]
6.66 | 7.00 | COc1cccc(CCc2nnc(-c3ccc4[nH]cnc4c3)s2)c1Cl [Example 63, 5-(5-(2-Chloro-3-methoxyphenethyl)-1,3,4-thiadiazol-2-yl)-1H-benzo[d]imidazole]
6.28 | 6.92 | c1ccc(SCc2nnc(-c3ccc4[nH]cnc4c3)s2)cc1 [Example 65, 5-(5-((Phenylthio)methyl)-1,3,4-thiadiazol-2-yl)-1H-benzo[d]imidazole]
6.24 | 6.92 | c1ccc(SCn2cc(-c3ccc4[nH]cnc4c3)nn2)cc1 [Example 84, 5-(1-((Phenylthio)methyl)-1H-1,2,3-triazol-4-yl)-1H-benzo[d]imidazole]
